The source of these data is patent US9120804B2, “8-substituted 2-amino-[1,2,4] triazolo [1, 5-A] pyrazines as Syk tryrosine kinase inhibitors and GCN2 serin kinase inhibitors” (Merck Patent GmbH, priority 2012, dated 2015).

Where only a bound is given, the exact number is not on record here.

Experiment [1] deals with T1, SYK (Homo sapiens, UniProt P43405).
T1 construct: 2.5 nM SYK, 400 nM Biotin-Aha-Aha-KEDPDYEWPSAKK
In words: SYK flash plate assay (enzyme assay). The format is biochemical. The gist of the method:
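Radiometric Flashplate format: biotinylated peptide substrate (400 nM) and 33P-labelled ATP (10 μM) react with 2.5 nM enzyme for 1 hour at 30 °C in Hepes buffer, pH 7.5. After EDTA quench and washing, counts are taken; staurosporine defines non-specific signal, and IC50 values are derived.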

Experiment [2] has as its target GCN2 (Homo sapiens, UniProt Q9P2K8). Nature of the experiment: GCN2 enzyme assay. The format is biochemical.

GCN2, sequence (Q9P2K8 whole entry): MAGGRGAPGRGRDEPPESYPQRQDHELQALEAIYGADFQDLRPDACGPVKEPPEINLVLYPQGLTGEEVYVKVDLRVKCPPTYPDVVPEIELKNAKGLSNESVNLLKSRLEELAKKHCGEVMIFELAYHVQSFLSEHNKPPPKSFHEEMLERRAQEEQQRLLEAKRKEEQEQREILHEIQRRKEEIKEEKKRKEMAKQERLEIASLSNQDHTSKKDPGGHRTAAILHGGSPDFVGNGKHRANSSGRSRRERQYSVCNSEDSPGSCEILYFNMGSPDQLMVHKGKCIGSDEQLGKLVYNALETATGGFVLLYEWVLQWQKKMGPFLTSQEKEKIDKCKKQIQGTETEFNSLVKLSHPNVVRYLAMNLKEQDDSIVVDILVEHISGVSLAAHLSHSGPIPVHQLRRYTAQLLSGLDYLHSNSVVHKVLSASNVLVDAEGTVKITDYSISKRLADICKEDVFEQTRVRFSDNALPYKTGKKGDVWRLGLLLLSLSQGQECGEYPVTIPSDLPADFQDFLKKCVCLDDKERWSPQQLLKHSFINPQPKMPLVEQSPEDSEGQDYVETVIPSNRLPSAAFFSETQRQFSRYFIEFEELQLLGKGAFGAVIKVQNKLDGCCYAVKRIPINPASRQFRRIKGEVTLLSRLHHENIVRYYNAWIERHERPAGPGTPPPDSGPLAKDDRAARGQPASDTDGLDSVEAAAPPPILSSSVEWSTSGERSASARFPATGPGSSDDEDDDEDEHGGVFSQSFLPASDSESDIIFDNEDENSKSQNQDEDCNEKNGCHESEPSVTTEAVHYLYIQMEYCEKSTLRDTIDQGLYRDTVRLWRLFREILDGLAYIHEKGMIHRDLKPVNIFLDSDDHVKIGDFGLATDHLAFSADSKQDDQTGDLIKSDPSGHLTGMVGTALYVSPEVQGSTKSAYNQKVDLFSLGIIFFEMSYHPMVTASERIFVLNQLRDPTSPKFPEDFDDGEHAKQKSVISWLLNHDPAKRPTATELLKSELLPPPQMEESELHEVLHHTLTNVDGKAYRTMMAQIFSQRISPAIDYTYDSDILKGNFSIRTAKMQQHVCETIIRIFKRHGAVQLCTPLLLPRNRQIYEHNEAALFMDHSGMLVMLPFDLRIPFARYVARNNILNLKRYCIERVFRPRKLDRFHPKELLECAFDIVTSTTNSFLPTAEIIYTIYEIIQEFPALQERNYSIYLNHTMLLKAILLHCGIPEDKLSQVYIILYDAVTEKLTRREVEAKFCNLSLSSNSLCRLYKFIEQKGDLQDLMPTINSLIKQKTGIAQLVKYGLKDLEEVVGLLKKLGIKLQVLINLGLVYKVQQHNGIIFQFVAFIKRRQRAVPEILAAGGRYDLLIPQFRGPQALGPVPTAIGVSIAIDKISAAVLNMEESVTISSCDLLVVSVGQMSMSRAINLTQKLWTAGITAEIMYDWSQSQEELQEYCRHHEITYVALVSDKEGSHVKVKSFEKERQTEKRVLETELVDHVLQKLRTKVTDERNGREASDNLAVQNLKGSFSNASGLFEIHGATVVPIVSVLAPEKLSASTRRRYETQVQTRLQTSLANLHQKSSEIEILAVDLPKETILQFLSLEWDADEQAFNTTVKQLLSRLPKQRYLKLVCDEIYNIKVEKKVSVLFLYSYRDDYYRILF

Consider `Cn1cc(-c2nccn3nc(Nc4ccc5c(c4)NC(=O)C5)nc23)cn1` [C60, 6-[8-(1-methyl-1H-pyrazol-4-yl)-[1,2,4]triazolo[1,5-a]pyrazin-2-ylamino]-1,3-dihydro-indol-2-one], for which the IC50 in experiment [1] and in experiment [2] was 300 to 3000 nM each time.
Take `Cn1cc(-c2nccn3nc(Nc4ccc(C(C)(C)O)cc4)nc23)cn1` [C61, 2-{4-[8-(1-methyl-1H-pyrazol-4-yl)-[1,2,4]triazolo[1,5-a]pyrazin-2-ylamino]-phenyl}-propan-2-ol]: the IC50 lay in the range of 100 to 300 nM in experiment [1] and 300 to 3000 nM in experiment [2].
Taken in the same sequence, the figures for `Cn1cc(-c2nccn3nc(Nc4ccc(C5(C#N)CC5)cc4)nc23)cn1` [C63, 1-{4-[8-(1-methyl-1H-pyrazol-4-yl)-[1,2,4]triazolo[1,5-a]pyrazin-2-ylamino]-phenyl}-cyclopropanecarbonitrile] were 100 to 300 nM and 300 to 3000 nM.
For `Cn1cc(-c2nccn3nc(Nc4ccc(C5(C(N)=O)CC5)cc4)nc23)cn1` [C64, 1-{4-[8-(1-methyl-1H-pyrazol-4-yl)-[1,2,4]triazolo[1,5-a]pyrazin-2-ylamino]-phenyl}-cyclopropanecarboxylic acid amide], the half-maximal inhibitory concentration (IC50) in experiment [1] and in experiment [2] was 300 to 3000 nM each time.
In the case of `N#CC1(c2ccc(Nc3nc4c(-c5cn[nH]c5)nccn4n3)cc2)CC1` [C65, 1-{4-[8-(1H-pyrazol-4-yl)-[1,2,4]triazolo[1,5-a]pyrazin-2-ylamino]-phenyl}-cyclopropanecarbonitrile], the IC50 fell in the range of 100 to 300 nM in experiment [1] and 3000 to 50000 nM in experiment [2].
For `NC(=O)C1(c2ccc(Nc3nc4c(-c5cn[nH]c5)nccn4n3)cc2)CC1` [C66, 1-{4-[8-(1H-pyrazol-4-yl)-[1,2,4]triazolo[1,5-a]pyrazin-2-ylamino]-phenyl}-cyclopropanecarboxylic acid amide] the same measures were 100 to 300 nM and 3000 to 50000 nM.
For `CC1(C)C(=O)Nc2cc(Nc3nc4c(-c5cn[nH]c5)nccn4n3)ccc21` [C67, 3,3-dimethyl-6-[8-(1H-pyrazol-4-yl)-[1,2,4]triazolo[1,5-a]pyrazin-2-ylamino]-1,3-dihydro-indol-2-one] the same measures were < 100 nM and 300 to 3000 nM.
Taken in the same sequence, the figures for `Cc1nn(C)cc1-c1nccn2nc(Nc3ccc4c(c3)NC(=O)C4(C)C)nc12` [C69, 6-[8-(1,3-dimethyl-1H-pyrazol-4-yl)-[1,2,4]triazolo[1,5-a]pyrazin-2-ylamino]-3,3-dimethyl-1,3-dihydro-indol-2-one] were 100 to 300 nM and 300 to 3000 nM.
As to `CC1(C)C(=O)Nc2cc(Nc3nc4c(-c5ccc(S(C)(=O)=O)cc5)nccn4n3)ccc21` [C70, 6-[8-(4-Methanesulfonyl-phenyl)-[1,2,4]triazolo[1,5-a]pyrazin-2-ylamino]-3,3-dimethyl-1,3-dihydro-indol-2-one], the IC50 in experiment [1] is 100 to 300 nM; in experiment [2], 300 to 3000 nM.
Taken in the same sequence, the figures for `Cn1cc(-c2nccn3nc(Nc4ccc5c(c4)NC(=O)C5(C)O)nc23)cn1` (stereo not drawn) [C71, 3-hydroxy-3-methyl-6-[8-(1-methyl-1H-pyrazol-4-yl)-[1,2,4]triazolo[1,5-a]pyrazin-2-ylamino]-1,3-dihydro-indol-2-one] were 100 to 300 nM and 300 to 3000 nM.
For `Cn1cc(-c2nccn3nc(Nc4ccc5c(C(C)(C)O)n[nH]c5c4)nc23)cn1` [C72, 2-{6-[8-(1-methyl-1H-pyrazol-4-yl)-[1,2,4]triazolo[1,5-a]pyrazin-2-ylamino]-1H-indazol-3-yl}-propan-2-ol] the same measures were < 100 nM and 300 to 3000 nM.
With `CC1(C)C(=O)Nc2cc(Nc3nc4c(N5CC[C@@H](O)C5)nccn4n3)ccc21` [C73, 6-[8-((R)-3-hydroxy-pyrrolidin-1-yl)-[1,2,4]triazolo[1,5-a]pyrazin-2-ylamino]-3,3-dimethyl-1,3-dihydro-indol-2-one], the IC50 in experiment [1] is 100 to 300 nM; in experiment [2] it was 3000 to 50000 nM.

The term IC50 denotes the concentration needed to halve the response being measured. A lower IC50 goes with greater potency.
